Data on one molecule can be found in patent publication US10179122B2, “Use of melatonin” (priority 2011, dated 2019).

Molecules are shown by their SMILES.

For this assay, the system named is hangover symptoms after consumption of alcoholic beverages. Briefly: Hangover symptoms after alcohol consumption, blinded subjects given a sublingual melatonin strip before sleep. It is filed as in vivo, human. The procedure:
Subjects were blind to all the experimental treatments.
A person was fed alcoholic beverages containing ethyl alcohol until the blood alcohol concentration reached 310 mg/dL at a time of 10 pm. Next, the person drank 1 l of water and immediately after that was administered a sublingual strip comprising 2.5 mg of melatonin in non-retard form. After that the person went to sleep. […] This experiment was repeated with 20 other persons with the same effect.
For comparison, the same experiment was conducted with administration of the sublingual strip without melatonin as a placebo. 19 out of 20 persons reported severe typical hangover symptoms like headaches.

Take `COc1ccc2[nH]cc(CCNC(C)=O)c2c1` [melatonin]: the “typical hangover symptoms after 8 h of physiologic sleep” value (one person, blood alcohol concentration 310 mg/dL at 10 pm, 1 l of water, then sublingual strip with 2.5 mg melatonin in non-retard form, assessed after 8 h sleep) is given as “did not suffer from any typical hangover symptoms”. Further, the “typical hangover symptoms after 8 h of physiologic sleep (experiment repeated)” value (repeated with 20 other persons, same protocol (310 mg/dL, 1 l of water, sublingual strip with 2.5 mg melatonin in non-retard form, 8 h sleep)) is “same effect”.
